Literature values in patent US20190105268A1, “Viscoelastic Gel of Liraglutide Adapted for Once-Weekly or Once Bi-Weekly Administration” (Sun Pharma Advanced Research Company Limited, priority 2016, published 2019).

Substance: liraglutide
- solubility in DMSO (DMSO): slightly soluble
- solubility in ethanol (ethanol): 1100 µg/mL
- solubility in methanol (methanol): up to 68 mg/ml
- solubility in water (water): insoluble to slightly soluble
